Measurements reported in patent US6992079B2, “Substituted 11-phenyl-dibenzazepine compounds useful for the treatment or prevention of diseases characterized by abnormal cell proliferation” (President Fellows of Harvard College, priority 1997, dated 2006).
Where two headings read alike, the source gives them in different places.

Legend:
HS 578T = experiment: In-Vitro Testing SRB panel: Breast Cancer; format: cell-based; conditions: 48 h
RXF 393 = experiment: In-Vitro Testing SRB panel: Renal Cancer; format: cell-based; conditions: RXF 393, 48 h
MDA-MB-231/ATCC = experiment: In-Vitro Testing SRB panel: Breast Cancer; format: cell-based
SK-MEL-5 = experiment: In-Vitro Testing SRB panel: Melanoma; format: cell-based; conditions: SK-MEL-5, 48 h
MALM-3M = experiment: In-Vitro Testing SRB panel: Melanoma; format: cell-based; conditions: 48 h
MC-F7 = experiment: In-Vitro Testing SRB panel: Breast Cancer; format: cell-based
786-0 = experiment: In-Vitro Testing SRB panel: Renal Cancer; format: cell-based; conditions: 786-0, 48 h
RL-60 (TS) = experiment: In-Vitro Testing SRB panel: Leukemia; format: cell-based; conditions: 48 h
HCT-15 = experiment: In-Vitro Testing SRB panel: Colon Cancer; format: cell-based; conditions: HCT-15, 48 h
A498 = experiment: In-Vitro Testing SRB panel: Renal Cancer; format: cell-based; conditions: A498, 48 h
UACC-62 = experiment: In-Vitro Testing SRB panel: Melanoma; format: cell-based; conditions: UACC-62, 48 h
MOLT-4 = experiment: In-Vitro Testing SRB panel: Leukemia; format: cell-based; conditions: MOLT-4, 48 h
M14 = experiment: In-Vitro Testing SRB panel: Melanoma; format: cell-based; conditions: M14, 48 h
NCI/ADR-RES = experiment: In-Vitro Testing SRB panel: Breast Cancer; format: cell-based; conditions: 48 h
LOX IMVI = experiment: In-Vitro Testing SRB panel: Melanoma; format: cell-based; conditions: 48 h
MMRU = experiment: SRB antiproliferative assay; format: cell-based; conditions: Homo sapiens
Excerpt: (§1) The cells were passaged using Trypsin (Gibco).

MDA-MB-23 = experiment: SRB antiproliferative assay; format: cell-based; conditions: Homo sapiens, MDA-MB-23
Excerpt: as §1

ERVX = conditions: 48 h
[1] = Homo sapiens, read-out: LC50 (the source's name)

O=C(c1ccc([N+](=O)[O-])cc1)N1Cc2ccccc2C(c2ccccc2Cl)c2ccccc21 (stereo not shown) [Compound 28, N-(4′-Nitrobenzoyl)-11-(2′-chlorophenyl)-5,6-dihydro-11H-dibenz[b,e]azepine]
TGI (HS 578T; HS 578T): >1.00E−04 Molar
Percent Growth (HS 578T; HS 578T, log10 conc −4.0 Molar): 42%
Percent Growth (HS 578T; HS 578T, log10 conc −5.0 Molar): 121%
Percent Growth (HS 578T; HS 578T, log10 conc −6.0 Molar): 125%
Percent Growth (HS 578T; HS 578T, log10 conc −7.0 Molar): 187%
Percent Growth (HS 578T; HS 578T, log10 conc −8.0 Molar): 193%
GI50 (HS 578T; Homo sapiens, Hs-578T): 80.2 µM
CC50 (HS 578T; Homo sapiens, HS 578T, read-out: LC50 (the source's name)): > 100 µM
GI50 (RXF 393; Homo sapiens): 1.39 µM
CC50 (RXF 393; [1]): > 100 µM
TGI (RXF 393): 7.75E−06 Molar
Percent Growth (RXF 393; log10 conc −4.0 Molar): −12%
Percent Growth (RXF 393; log10 conc −5.0 Molar): −7%
Percent Growth (RXF 393; log10 conc −6.0 Molar): 60%
Percent Growth (RXF 393; log10 conc −7.0 Molar): 98%
Percent Growth (RXF 393; log10 conc −8.0 Molar): 99%
GI50 (MDA-MB-231/ATCC; Homo sapiens, MDA-MB-231, 48 h): 4.94 µM
CC50 (MDA-MB-231/ATCC; Homo sapiens, MDA-MB-231/ATCC, 48 h, read-out: LC50 (the source's name)): > 100 µM
TGI (MDA-MB-231/ATCC; MDA-MB-231/ATCC, 48 h): >1.00E−04 Molar
Percent Growth (MDA-MB-231/ATCC; MDA-MB-231/ATCC, log10 conc −4.0 Molar, 48 h): 22%
Percent Growth (MDA-MB-231/ATCC; MDA-MB-231/ATCC, log10 conc −5.0 Molar, 48 h): 36%
Percent Growth (MDA-MB-231/ATCC; MDA-MB-231/ATCC, log10 conc −6.0 Molar, 48 h): 72%
Percent Growth (MDA-MB-231/ATCC; MDA-MB-231/ATCC, log10 conc −7.0 Molar, 48 h): 96%
Percent Growth (MDA-MB-231/ATCC; MDA-MB-231/ATCC, log10 conc −8.0 Molar, 48 h): 103%
GI50 (SK-MEL-5; Homo sapiens): 0.529 µM
CC50 (SK-MEL-5; [1]): > 100 µM
TGI (SK-MEL-5): 1.74E−05 Molar
Percent Growth (SK-MEL-5; log10 conc −4.0 Molar): −25%
Percent Growth (SK-MEL-5; log10 conc −5.0 Molar): 8%
Percent Growth (SK-MEL-5; log10 conc −6.0 Molar): 40%
Percent Growth (SK-MEL-5; log10 conc −7.0 Molar): 76%
Percent Growth (SK-MEL-5; log10 conc −8.0 Molar): 84%
GI50 (MALM-3M; Homo sapiens): 49.6 µM
CC50 (MALM-3M; Homo sapiens, MALM-3M, read-out: LC50 (the source's name)): > 100 µM
TGI (MALM-3M; MALM-3M): >1.00E−04 Molar
Percent Growth (MALM-3M; MALM-3M, log10 conc −4.0 Molar): 39%
Percent Growth (MALM-3M; MALM-3M, log10 conc −5.0 Molar): 76%
Percent Growth (MALM-3M; MALM-3M, log10 conc −6.0 Molar): 79%
Percent Growth (MALM-3M; MALM-3M, log10 conc −7.0 Molar): 85%
Percent Growth (MALM-3M; MALM-3M, log10 conc −8.0 Molar): 92%
GI50 (MC-F7; Homo sapiens, MCF7, 48 h): 0.872 µM
CC50 (MC-F7; Homo sapiens, MCF7, MC-F7, 48 h, read-out: LC50 (the source's name)): > 100 µM
TGI (MC-F7; MC-F7, 48 h): >1.00E−04 Molar
Percent Growth (MC-F7; MC-F7, log10 conc −4.0 Molar, 48 h): 8%
Percent Growth (MC-F7; MC-F7, log10 conc −5.0 Molar, 48 h): 21%
Percent Growth (MC-F7; MC-F7, log10 conc −6.0 Molar, 48 h): 48%
Percent Growth (MC-F7; MC-F7, log10 conc −7.0 Molar, 48 h): 88%
Percent Growth (MC-F7; MC-F7, log10 conc −8.0 Molar, 48 h): 97%
TGI (786-0): >1.00E−04 Molar
Percent Growth (786-0; log10 conc −4.0 Molar): 27%
Percent Growth (786-0; log10 conc −5.0 Molar): 31%
Percent Growth (786-0; log10 conc −6.0 Molar): 51%
Percent Growth (786-0; log10 conc −7.0 Molar): 102%
Percent Growth (786-0; log10 conc −8.0 Molar): 100%
GI50 (786-0; Homo sapiens): 1.16 µM
CC50 (786-0; [1]): > 100 µM
GI50 (RL-60 (TS); Homo sapiens): 0.489 µM
CC50 (RL-60 (TS); Homo sapiens, RL-60 (TS), read-out: LC50 (the source's name)): > 100 µM
TGI (RL-60 (TS); RL-60 (TS)): 7.71E−05 Molar
Percent Growth (RL-60 (TS); RL-60 (TS), log10 conc −4.0 Molar): 1%
Percent Growth (RL-60 (TS); RL-60 (TS), log10 conc −5.0 Molar): 5%
Percent Growth (RL-60 (TS); RL-60 (TS), log10 conc −6.0 Molar): 41%
Percent Growth (RL-60 (TS); RL-60 (TS), log10 conc −7.0 Molar): 71%
Percent Growth (RL-60 (TS); RL-60 (TS), log10 conc −8.0 Molar): 76%
TGI (HCT-15): >1.00E−04 Molar
Percent Growth (HCT-15; log10 conc −4.0 Molar): 29%
Percent Growth (HCT-15; log10 conc −5.0 Molar): 28%
Percent Growth (HCT-15; log10 conc −6.0 Molar): 40%
Percent Growth (HCT-15; log10 conc −7.0 Molar): 86%
Percent Growth (HCT-15; log10 conc −8.0 Molar): 99%
GI50 (HCT-15; Homo sapiens): 0.608 µM
CC50 (HCT-15; [1]): > 100 µM
TGI (A498): >1.00E−04 Molar
Percent Growth (A498; log10 conc −4.0 Molar): 15%
Percent Growth (A498; log10 conc −5.0 Molar): 57%
Percent Growth (A498; log10 conc −6.0 Molar): 81%
Percent Growth (A498; log10 conc −7.0 Molar): 93%
Percent Growth (A498; log10 conc −8.0 Molar): 97%
GI50 (A498; Homo sapiens): 14.4 µM
CC50 (A498; [1]): > 100 µM
GI50 (UACC-62; Homo sapiens): 0.363 µM
CC50 (UACC-62; [1]): > 100 µM
Percent Growth (UACC-62; log10 conc −4.0 Molar): 0%
Percent Growth (UACC-62; log10 conc −5.0 Molar): 22%
Percent Growth (UACC-62; log10 conc −6.0 Molar): 45%
Percent Growth (UACC-62; log10 conc −7.0 Molar): 57%
Percent Growth (UACC-62; log10 conc −8.0 Molar): 82%
GI50 (MOLT-4; Homo sapiens): 0.7 µM
CC50 (MOLT-4; [1]): > 100 µM
TGI (MOLT-4): >1.00E−04 Molar
Percent Growth (MOLT-4; log10 conc −4.0 Molar): 24%
Percent Growth (MOLT-4; log10 conc −5.0 Molar): 24%
Percent Growth (MOLT-4; log10 conc −6.0 Molar): 44%
Percent Growth (MOLT-4; log10 conc −7.0 Molar): 82%
Percent Growth (MOLT-4; log10 conc −8.0 Molar): 109%
GI50 (M14; Homo sapiens): 0.941 µM
CC50 (M14; [1]): > 100 µM
TGI (M14): 2.19E−05 Molar
Percent Growth (M14; log10 conc −4.0 Molar): −32%
Percent Growth (M14; log10 conc −5.0 Molar): 16%
Percent Growth (M14; log10 conc −6.0 Molar): 49%
Percent Growth (M14; log10 conc −7.0 Molar): 85%
Percent Growth (M14; log10 conc −8.0 Molar): 94%
TGI (NCI/ADR-RES): >1.00E−04 Molar
GI50 (NCI/ADR-RES; Homo sapiens): 3.22 µM
CC50 (NCI/ADR-RES; [1]): > 100 µM
Percent Growth (NCI/ADR-RES; log10 conc −4.0 Molar): 20%
Percent Growth (NCI/ADR-RES; log10 conc −5.0 Molar): 27%
Percent Growth (NCI/ADR-RES; log10 conc −6.0 Molar): 74%
Percent Growth (NCI/ADR-RES; log10 conc −7.0 Molar): 105%
Percent Growth (NCI/ADR-RES; log10 conc −8.0 Molar): 97%
TGI (LOX IMVI): >1.00E−04 Molar
GI50 (LOX IMVI; Homo sapiens): 0.382 µM
CC50 (LOX IMVI; [1]): > 100 µM
Percent Growth (LOX IMVI; log10 conc −4.0 Molar): 9%
Percent Growth (LOX IMVI; log10 conc −5.0 Molar): 8%
Percent Growth (LOX IMVI; log10 conc −6.0 Molar): 19%
Percent Growth (LOX IMVI; log10 conc −7.0 Molar): 93%
Percent Growth (LOX IMVI; log10 conc −8.0 Molar): 103%
IC50 (MMRU; MMRU (Melanoma), 5% FCS/5 day incubation): 0.2 µM
IC50 (MMRU; MMRU, 5% FCS/3 days): < 1.25 µM
IC50 (MDA-MB-23): 0.5 µM
TGI (ERVX; ERVX): >1.00E−04 Molar
Percent Growth (ERVX; ERVX, log10 conc −4.0 Molar): 23%
Percent Growth (ERVX; ERVX, log10 conc −5.0 Molar): 24%
Percent Growth (ERVX; ERVX, log10 conc −6.0 Molar): 51%
Percent Growth (ERVX; ERVX, log10 conc −7.0 Molar): 93%
Percent Growth (ERVX; ERVX, log10 conc −8.0 Molar): 85%
GI50 (ERVX; Homo sapiens): 1.13 µM
CC50 (ERVX; Homo sapiens, read-out: LC50): > 100 µM
